Experimental data published in US5656591A, “Antimicrobial agents and method for treating products therewith” (Morinaga Milk Industry Co., Ltd., priority 1992, dated 1997).

Columns and labels:
[1] = system: Staphylococcus aureus (JCM-2151); experiment: Viability assay (survival rate) in cow's milk medium; format: cell-based; set-up: key to survival rate: % of control colony count 1 (control colony count 2 at peptide 0); details: for antimicrobial activity of the compound added without antimicrobial peptide or lactoferrin hydrolysate (in words): compound alone; for effect of the coexisting compound on the antimicrobial activity of the lactoferrin hydrolysate (in words): with lactoferrin hydrolysate 1
Method: The colonies grown on the culture medium were scraped by a platinum loop and cultivated in 1% peptone (by Difco Company) culture medium for several hours at 37° C., and the resultant microbial culture at logarithmic phase was used as the preculture in a serial concentration of 3×10^8 /ml.
A quantity of the resultant solutions of the samples were selectively mixed with a quantity of the basal medium, thereby test media for the respective tests were prepared in the combinations and eventual concentrations as specified in the respective tests.
Utilizing the samples (5), (7), (8), (9), (10), (14), (15), (17), (18) and (19), test media were prepared in the same manner as in the preparation of the test media containing sample (3) and the like, except that the aqueous solution (in the cases of samples (5) and (7), aqueous suspensions) were not dealt with sterilization filters.
To 2 ml aliquots of test media prepared in (3-1) (supra), […] aliquots of the preculture of Staphylococcus aureus prepared in (1) (2. Method, supra) were added, then incubated at 37° C. for 1 hour, 200 μl aliquots of the resultant cultures were taken out and diluted with 1% peptone solution in a series of 10^n respectively, 110 μl aliquots of the resultant dilution series were spread onto plates of standard agar culture medium, and after incubation at 37° C. for 24 hours the number of colonies grown on the plates were counted (Test. Colony Count).
Control coloney counts 1 were determined in the same manner as in the determination of the test coloney counts, except that […] aliquots of the preculture of Staphylococcus aureus prepared in (1) (2. Method, supra) were added to 2 ml aliquots of the respective control media 1 prepared in (3-2) (supra). Furthermore, control coloney counts 2 were determined in the same manner as in the determination of the test coloney counts, except that […] aliquots of the preculture of Staphylococcus aureus prepared in (1) (supra) were added to 2 ml aliquots of the respective control media 1 prepared in (3-2) (supra).
Survival rate 1=(Test Colony Count/Control Colony Count 1)×100
Survival rate 2=(Control Colony Count 2/Control Colony Count 1)×100
(Note: In the tables shown hereinafter, vulues of survival rate 2 are indicated in the row where the concentration of antimicrobial peptide or lactoferrin hydrolysate is 0.)

[2] = system: methicillin-resistant Staphylococcus aureus (wild type); experiment: Viability assay in Mueller-Hington Broth on antibiotics-resistant microorganism; format: cell-based
Method: Precultures of test microorganisms to be used in the tests described hereunder were prepared in such a manner that: from the frozen preservation of dispersions of test microorganisms, a loop of the respective strains of the microorganisms were taken out and spread onto TRI PETIT CASE SOYA AGAR MEDIA (by BBL Company), and incubated at 37° C. for 16 hours; the colonies grown on the culture media were scraped by a platinum loop and cultivated in 2.1% Mueller-Hington Broth (by Difco Company) respectively for several hours at 37° C. The resultant microbial cultures at logarithmic phase in 3×10^8 /ml of microbial concentration were used as the precultures.
The test media to be used in the respective tests were prepared in such a manner that: aqueous solutions in a predetermined concentration of the lactoferrin hydrolysates or the lactoferrin-derived antimicrobial peptides of (1) and (2) in Preparation of Samples (supra), as well as the samples of antibiotics of (3) (supra) were respectively sterilized with filters (by Advantec Company); then a quantity of the resultant solutions of respective samples were selectively added to a quantity of basal medium (Mueller-Hington Broth) prepared in the eventual concentration of 2.1%, thereby combinations of the samples and their concentrations in the respective test media were adjusted as specified in the respective tests. […]

[3] = with antimicrobial peptide Seq. ID No. 26
[4] = with antimicrobial peptide Seq. ID No. 27

Compound	antimicrobial activity of the compound added without antimicrobial peptide or lactoferrin hydrolysate (in words) [1]	effect of the coexisting compound on the antimicrobial activity of the antimicrobial peptide (in words) [1, 3]	effect of the coexisting compound on the antimicrobial activity of the lactoferrin hydrolysate (in words) [1]	further results
CCCCCCCCCCCCCC(=O)OCC(O)CO (racemic) [1-monomyristoyl-rac-glycerol, 1-monomyristoyl-rac-Glycerol]	the antimicrobial activity is low	augmented the antimicrobial activity of the peptide		
CCCCCCCCCCCCCCCCCC(=O)OCC(O)CO (racemic) [1-monostearoyl-rac-glycerol]	no antimicrobial activity was observed	augments the antimicrobial activity of the antimicrobial peptide		survival rate ([1]; Test 19: peptide 0, 1-monostearoyl-rac-glycerol 0.5 mg/ml): 116%; survival rate ([1]; Test 19: peptide 0, 1-monostearoyl-rac-glycerol 1 mg/ml): 133%; survival rate ([1]; Test 19: peptide 0, 1-monostearoyl-rac-glycerol 2 mg/ml): 98%
CCCCCCCC(=O)OCC(O)CO (racemic) [monocapryloyl-glycerol, 1-Monocapryloyl-rac-Glycerol]	no antimicrobial activity was observed	augments the antimicrobial activity of the peptide		
O=C([O-])CN(CCN(CC(=O)[O-])CC(=O)O)CC(=O)O.[Na+].[Na+] [EDTA.Na2, EDTA·Na2]	no antimicrobial activity was observed		augments the antimicrobial activity of the lactoferrin hydrolysate	survival rate ([1]; Test 9: lactoferrin hydrolysate 0, EDTA.Na2 0.1 mg/ml): 122; survival rate ([1]; Test 9: lactoferrin hydrolysate 0, EDTA.Na2 1 mg/ml): 115; survival rate ([1]; Test 9: lactoferrin hydrolysate 0, EDTA.Na2 5 mg/ml): 101
N[C@@H](CS)C(=O)O [L-cysteine, L-Cysteine]	antimicrobial activity was low			effect of the coexisting compound on the antimicrobial activity of the antimicrobial peptide (in words) [1, 4]: augments the antimicrobial activity of the peptide
O=C1O[C@H]([C@@H](O)CO)C(O)=C1O [ascorbic acid, Ascorbic Acid]	no antimicrobial activity was observed		augments the antimicrobial activity of the lactoferrin hydrolysate 1	effect of the coexisting compound on the antimicrobial activity of the antimicrobial peptide (in words) [1, 4]: augments the antimicrobial activity of the peptide
C[C@H](CCC(=O)O)[C@H]1CC[C@H]2[C@@H]3[C@H](O)C[C@@H]4C[C@H](O)CC[C@]4(C)[C@H]3C[C@H](O)[C@]12C [cholic acid, Cholic Acid]	no antimicrobial activity was observed	further augments the antimicrobiaI activity of the peptide	augments the antimicrobial activity of the lactoferrin hydrolysate 1	survival rate ([1]; Test 22: peptide 0, 1-monolauroyl-rac-glycerol 0, cholic acid 1 mg/ml): 92%
O=C(O)CC(O)(CC(=O)O)C(=O)O [citric acid, Citric Acid]			augments the antimicrobial activity of the lactoferrin hydrolysate 1	
CCO [ethyl alcohol, Ethyl Alcohol]	no antimicrobial activity was observed	potentiates the antimicrobial activity of the peptide		
OCC(O)CO [glycerol, Glycerol]	no antimicrobial activity was observed	augments the antimicrobial activity of the peptide		
CN(C)c1ccc(O)c2c1C[C@H]1C[C@H]3[C@H](N(C)C)C(O)=C(C(N)=O)C(=O)[C@@]3(O)C(O)=C1C2=O [minomycin]				survival rate ([2]; Test 24: peptide 0, minomycin 10 μg/ml): 32%; survival rate ([2]; Test 24: peptide 0, minomycin 50 μg/ml): 5.2%
CC(O)CO (centres unmarked) [propylene glycol, Propylene Glycol]	no antimicrobial activity was observed	augmented the antimicrobial activity of the peptide		
OC[C@H]1O[C@@H]2O[C@H]3[C@H](O)[C@@H](O)[C@@H](O[C@H]4[C@H](O)[C@@H](O)[C@@H](O[C@H]5[C@H](O)[C@@H](O)[C@@H](O[C@H]6[C@H](O)[C@@H](O)[C@@H](O[C@H]7[C@H](O)[C@@H](O)[C@@H](O[C@H]8[C@H](O)[C@@H](O)[C@@H](O[C@H]1[C@H](O)[C@H]2O)O[C@@H]8CO)O[C@@H]7CO)O[C@@H]6CO)O[C@@H]5CO)O[C@@H]4CO)O[C@@H]3CO [β-cyclodextrin, β-Cyclodextrin]	no antimicrobial activity was observed	augments the antimicrobial activity of the peptide		survival rate ([1]; Test 4: peptide 0, β-cyclodextrin 0.1 mg/ml): 100; survival rate ([1]; Test 4: peptide 0, β-cyclodextrin 1 mg/ml): 109; survival rate ([1]; Test 4: peptide 0, β-cyclodextrin 2.5 mg/ml): 88
Polyphosphoric Acid	no antimicrobial activity was observed		augments the antimicrobial activity of the lactoferrin hydrolysate 1	survival rate ([1]; Test 12: lactoferrin hydrolysate 0, polyphosphoric acid 0.1 mg/ml): 140; survival rate ([1]; Test 12: lactoferrin hydrolysate 0, polyphosphoric acid 1 mg/ml): 124; survival rate ([1]; Test 12: lactoferrin hydrolysate 0, polyphosphoric acid 5 mg/ml): 111
tocopherol	no antimicrobial activity was observed	augments the antimicrobial activity of the peptide		survival rate ([1]; Test 3: peptide 0, tocopherol 0.1 mg/ml): 101; survival rate ([1]; Test 3: peptide 0, tocopherol 0.5 mg/ml): 113; survival rate ([1]; Test 3: peptide 0, tocopherol 1 mg/ml): 112
